Molecules are shown by their SMILES.

The target in series [1] is T1, NMDA Receptor (NR1/NR2B Receptor) (Rattus norvegicus, UniProt P35439+Q00960).
T1 construct: this was used as a membrane specimen in an experiment; from tissue; host or cells: rat cerebral cortex membranes
Put plainly: Experiment of binding to NMDA receptor (NR1/NR2B receptor), [3H]-Ifenprodil competition, rat cerebral cortex membrane. To be noted: [3H]-Ifenprodil 5 nM, GBR-12909 3 μM, ice temperature 120 minutes. How it is done:
Using Ifenprodil which is a NR1/NR2B subtype receptor-specific antagonist as a ligand, an experiment of receptor competition with a test compound was performed.
A male Slc:Wistar rat was used as an animal, a decapitated brain was isolated, and cerebral cortex was fractionated. The cerebral cortex was homogenized with a 20-fold amount of an ice-cooled 50 mM Tris/HCl buffer (pH 7.4), and centrifuged at 4° C. and 27,500×g for 10 minutes. The resulting precipitate was suspended in the same buffer, and the suspension was centrifuged again. This procedure was repeated three times, and the resulting precipitate was suspended in a buffer, and stored at −80° C. Immediately before an experiment, the frozen suspension was thawed at room temperature, and centrifuged at 4° C. and 27,500×g for 10 minutes, and the resulting precipitate was suspended in a buffer. The suspension was further diluted 10-fold with a buffer, and this was used as a membrane specimen in an experiment.
In a binding experiment, to 470 μl of the membrane specimen were added 10 μl of different concentrations of a test compound, 10 μl of a labeled ligand [3H]-Ifenprodil and 10 μl of GBR-12909, and this was incubated at an ice temperature for 120 minutes. A concentration of [3H]-Ifenprodil of the labeled ligand was finally 5 nM, and a concentration of GBR-12909 was finally 3 μM. For measuring a total binding amount, DMSO as a solvent was used and, for measuring a non-specific binding amount, 100 μM of Ifenprodil was used. In addition, GBR-12909 was added in order to block binding of [3H]-Ifenprodil to a non-polyamine-sensitive site. After incubation, a bound body and a free body were separated using a Whatman GF/C filter (manufactured by Whatman), and the filter was washed with 2.5 ml of an ice-cooled buffer four times. The filter was immersed in a liquid scintillation (Clear-sol I, manufactured by Nacalai tesque) in a vial bottle, and radioactivity (dpm) was measured with a liquid scintillation counter. From a measured value, a binding inhibition rate (%) was obtained by the following equation, and a dose at which binding is inhibited 50% (IC50) was calculated. A formula of GBR-12909 (Vanoxerine) is shown below.
Binding inhibition rate(%)=100−[(binding amount in presence of test compound−non-specific amount)/(total binding amount−non-specific binding amount)]×100

The target in series [2] is T2, mouse NMDA receptor (NR1 subunit and NR2B subunit co-expressed in HEK293 cells) (Mus musculus, UniProt P35438+Q01097).
T2 construct: expressed in transfected cells; host or cells: HEK293 cells, transient, pcDNA 3.1 plasmids
As to the kind of experiment: Expression of NMDA receptor and measurement of Ca ion flow in amount (HEK293 cells, Fluo-3/AM, FDSS3000). It is filed as cell-based. To be noted: Ca ion flow in induced with glutamic acid 20 μM/glycine 2 μM, read-out: Ca2+ 1050. How it is done: Test Example 2 Expression of NMDA receptor and measurement of Ca ion flow in amount
A complementary DNA (cDNA) of a mouse NMDA receptor subunit was transiently introduced into HEK293 cells and, after one day from introduction, change in a glutamic acid/glycine-induced intracellular Ca amount was measured using a Ca ion reactive fluorescent dye.
HEK293 cells were cultured and passaged using a modified Dulbecco's Eagle medium (DMEM, low glucose).
20,000/well of HEK293 cells were seeded on a 96-well plate, a NR1 subunit and a NR2B subunit of a NMDA receptor incorporated into pcDNA 3.1 plasmid were transiently introduced into cells, and co-expression of subunits was performed. An introduction amount of a DNA was such that the NR1 subunit was 0.025 μg, and the NR2B subunit was 0.075 μg per well. For cells after introduction, cell death was inhibited using 50 μM of a NMDA receptor antagonist MK-801.
For adjusting a test compound and washing cells, Krebs Ringer Hepes buffer (KRH, Ca: 5 mM) was used.
One day after introduction, the NMDA receptor antagonist MK-801 was washed off using the KRH buffer, and a Ca ion indicative fluorescent dye Fluo-3/AM was made to be taken into cells. Flow in of a Ca ion was induced with glutamic acid 20 μM/glycine 2 μM. Change in a fluorescence amount due to intracellular Ca ion flow in was measured at excitation 480 nm using a fluorescence imaging system FDSS3000.
From a measured value of the test compound, a Ca ion flow in inhibitory rate (%) was obtained by the following equation, and a dose at which flow in is 50% inhibited (IC50) was calculated.
Ca ion flow in inhibitory rate(%)=100−[(fluorescence amount in presence of test compound−background fluorescence amount)/(total fluorescence amount[…]background fluorescence amount)]×100

T2 sequence (Q01097 27-1482, other chains not shown): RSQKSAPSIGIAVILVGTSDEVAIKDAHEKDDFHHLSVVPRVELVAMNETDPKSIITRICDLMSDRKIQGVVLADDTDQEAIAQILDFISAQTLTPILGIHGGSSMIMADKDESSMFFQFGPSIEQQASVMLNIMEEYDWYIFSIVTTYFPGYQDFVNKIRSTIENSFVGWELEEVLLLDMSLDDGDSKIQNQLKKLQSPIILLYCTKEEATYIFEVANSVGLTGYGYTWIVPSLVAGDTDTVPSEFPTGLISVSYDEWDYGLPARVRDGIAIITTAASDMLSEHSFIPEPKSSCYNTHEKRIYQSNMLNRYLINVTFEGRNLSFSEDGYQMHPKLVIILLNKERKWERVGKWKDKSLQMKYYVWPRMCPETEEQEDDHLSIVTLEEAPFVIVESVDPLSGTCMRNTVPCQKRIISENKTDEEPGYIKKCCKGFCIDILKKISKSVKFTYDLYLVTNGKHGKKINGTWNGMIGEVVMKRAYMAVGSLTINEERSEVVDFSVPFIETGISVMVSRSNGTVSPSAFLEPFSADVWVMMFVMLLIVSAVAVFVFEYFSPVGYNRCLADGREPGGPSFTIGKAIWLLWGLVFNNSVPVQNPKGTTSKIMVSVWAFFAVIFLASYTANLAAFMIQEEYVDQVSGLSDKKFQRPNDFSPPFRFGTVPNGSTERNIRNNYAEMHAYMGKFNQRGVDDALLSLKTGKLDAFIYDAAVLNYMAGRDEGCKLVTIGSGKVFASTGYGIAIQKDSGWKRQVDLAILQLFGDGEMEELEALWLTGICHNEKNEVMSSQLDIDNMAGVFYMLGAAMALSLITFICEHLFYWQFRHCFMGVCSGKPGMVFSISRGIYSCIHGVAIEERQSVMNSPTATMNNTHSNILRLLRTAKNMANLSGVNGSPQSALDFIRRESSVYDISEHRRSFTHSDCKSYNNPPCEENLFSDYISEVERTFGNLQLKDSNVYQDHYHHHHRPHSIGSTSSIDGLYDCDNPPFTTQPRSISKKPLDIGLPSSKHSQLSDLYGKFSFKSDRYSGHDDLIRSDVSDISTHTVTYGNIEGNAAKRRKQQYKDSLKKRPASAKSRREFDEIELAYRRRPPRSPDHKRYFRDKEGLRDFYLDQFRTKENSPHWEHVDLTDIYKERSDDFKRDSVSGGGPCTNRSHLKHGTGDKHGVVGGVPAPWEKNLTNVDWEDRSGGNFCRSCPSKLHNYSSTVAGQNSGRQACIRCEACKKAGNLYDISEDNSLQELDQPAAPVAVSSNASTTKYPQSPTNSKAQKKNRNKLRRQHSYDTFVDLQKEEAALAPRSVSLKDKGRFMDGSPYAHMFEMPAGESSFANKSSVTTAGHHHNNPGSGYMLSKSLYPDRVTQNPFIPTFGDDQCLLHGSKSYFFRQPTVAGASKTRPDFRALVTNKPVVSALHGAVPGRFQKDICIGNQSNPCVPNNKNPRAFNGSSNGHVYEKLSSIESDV
T1 sequence (Q00960 27-1482, other chains not shown): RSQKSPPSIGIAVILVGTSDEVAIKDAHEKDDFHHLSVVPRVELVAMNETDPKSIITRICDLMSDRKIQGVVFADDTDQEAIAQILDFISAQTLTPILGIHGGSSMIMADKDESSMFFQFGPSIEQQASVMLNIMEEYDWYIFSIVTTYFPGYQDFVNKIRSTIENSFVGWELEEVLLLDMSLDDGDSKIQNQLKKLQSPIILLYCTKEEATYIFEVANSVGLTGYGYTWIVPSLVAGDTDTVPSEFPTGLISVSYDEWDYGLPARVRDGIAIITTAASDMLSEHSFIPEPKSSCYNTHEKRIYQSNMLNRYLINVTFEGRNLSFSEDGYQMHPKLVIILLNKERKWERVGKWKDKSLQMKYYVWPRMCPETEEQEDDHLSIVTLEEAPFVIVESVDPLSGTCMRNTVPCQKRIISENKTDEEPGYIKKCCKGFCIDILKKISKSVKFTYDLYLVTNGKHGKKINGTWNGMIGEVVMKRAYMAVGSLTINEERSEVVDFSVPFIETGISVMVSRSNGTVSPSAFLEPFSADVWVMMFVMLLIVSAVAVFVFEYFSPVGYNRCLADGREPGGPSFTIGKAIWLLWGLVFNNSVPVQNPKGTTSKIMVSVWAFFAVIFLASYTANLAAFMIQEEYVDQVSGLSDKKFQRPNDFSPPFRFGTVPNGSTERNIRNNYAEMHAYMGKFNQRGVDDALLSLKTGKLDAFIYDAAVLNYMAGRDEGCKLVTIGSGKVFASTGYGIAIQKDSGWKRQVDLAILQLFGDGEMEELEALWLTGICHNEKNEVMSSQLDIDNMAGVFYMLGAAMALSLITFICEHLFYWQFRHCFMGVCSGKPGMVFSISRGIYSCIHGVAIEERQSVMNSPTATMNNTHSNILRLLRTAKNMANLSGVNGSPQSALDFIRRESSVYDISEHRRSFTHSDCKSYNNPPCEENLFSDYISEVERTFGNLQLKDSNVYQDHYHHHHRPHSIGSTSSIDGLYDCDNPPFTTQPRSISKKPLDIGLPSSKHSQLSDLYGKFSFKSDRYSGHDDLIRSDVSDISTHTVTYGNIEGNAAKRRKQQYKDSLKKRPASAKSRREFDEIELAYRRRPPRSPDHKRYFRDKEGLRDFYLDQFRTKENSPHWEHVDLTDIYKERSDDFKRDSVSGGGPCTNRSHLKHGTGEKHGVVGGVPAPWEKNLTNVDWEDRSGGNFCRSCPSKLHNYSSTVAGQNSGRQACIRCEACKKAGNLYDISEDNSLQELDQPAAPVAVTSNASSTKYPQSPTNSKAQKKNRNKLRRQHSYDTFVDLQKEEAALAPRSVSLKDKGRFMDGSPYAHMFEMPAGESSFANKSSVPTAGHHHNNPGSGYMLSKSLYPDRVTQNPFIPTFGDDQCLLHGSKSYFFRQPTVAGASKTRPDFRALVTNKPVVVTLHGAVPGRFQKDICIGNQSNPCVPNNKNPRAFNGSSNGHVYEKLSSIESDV

By melting point is commonly meant the temperature, or range, at which the solid turns liquid. Regarding `O=C(CNc1ccc2[nH]c(=O)oc2c1)N1CCN(c2ccc(F)c(Cl)c2)CC1` [Compound I-3], the melting point was 130 to 132 °C.

For the molecule `Cc1cc(N2CCN(C(=O)CNc3ccc4[nH]c(=O)oc4c3)C[C@H]2C)ccc1Cl` [Compound I-63], the melting point lay within 112 to 114 °C.

For `C[C@@H]1CN(c2ccc(F)cc2)C[C@H](C)N1C(=O)C(=O)Nc1ccc2[nH]c(=O)oc2c1` [Compound I-5], the melting point fell in the range of 245 to 246 °C.

`O=C(CCNc1ccc2[nH]c(=O)oc2c1)N1CCN(c2ccc(Cl)c(F)c2)CC1` [Compound I-2] registered a melting point of 187 to 189 °C.

Turning to `O=C(CNc1ccc2[nH]c(=O)oc2c1)N1CCN(c2ccc(Cl)c(F)c2)CC1` [Compound I-1], the melting point was in the range of 136 to 138 °C. The molecule also gave an IC50 in series [1] of 0.149 µM. In addition, the IC50 in series [2] is 49 nM.

Take `COc1c(F)cc(N2CCN(C(=O)CNc3ccc4[nH]c(=O)oc4c3)CC2)cc1F` [Compound I-7]: the melting point lay in the range of 194 to 196 °C. Moreover, the IC50 in series [2] came to 89 nM.

`O=C(CN1CCN(c2ccc(Cl)cc2)CC1=O)Nc1ccc2[nH]c(=O)oc2c1` [Compound I-67]: the melting point was 223 to 225 °C.

With `C[C@@H]1CN(c2ccc(Cl)c(F)c2)CCN1C(=O)CNc1ccc2[nH]c(=O)oc2c1` [Compound I-6], the melting point lay in the range of 224 to 226 °C. In series [1], this molecule registered an IC50 of 0.026 µM. Besides, in series [2], the IC50 turned out to be 20 nM.

`CC(Nc1ccc2[nH]c(=O)oc2c1)C(=O)N1CCN(c2ccc(Cl)c(F)c2)CC1` (centres unmarked) [Compound I-4] gave a melting point of 223 to 225 °C.

As to `COc1c(F)cc(N2CCN(C(=O)CNc3ccc4[nH]c(=O)oc4c3)[C@H](C)C2)cc1F` [Compound I-9], the values for the IC50 in series [1] and in series [2] were 0.031 µM and 7 nM, respectively.

Molecule `Cc1cc(N2CCN(C(=O)C(=O)Nc3ccc4[nH]c(=O)oc4c3)[C@H](C)C2)ccc1Cl` [Compound I-40] showed a melting point of 123 to 124 °C. In series [1], this molecule displayed an IC50 of 0.04 µM. The IC50 in series [2] was found to be 14 nM.

On to `C[C@@H]1CN(C(=O)C(=O)Nc2ccc3[nH]c(=O)oc3c2)CCN1c1ccc(C(F)(F)F)cc1` [Compound I-50], for which the IC50 in series [1] turned out to be 0.064 µM; in series [2], 5 nM.

As for `COCc1ccc(N2CCN(C(=O)C(=O)Nc3ccc4[nH]c(=O)oc4c3)CC2)cc1F` [Compound I-33], the IC50 in series [1] was determined as 0.059 µM; in series [2], 26 nM.
